Experimental data from the supplement of paper PMC10627819.

What was measured:
Assay in all cases: fitness (endpoint OD595 vs no drug) (fraction); higher = more growth
S. aureus DSM 20231 = system: S. aureus DSM 20231
In short: (§1)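 Each well of a 384-well plate received 30 µl of culture at OD595 0.01, or 55 µl for S. pneumoniae. TSB, LB Lennox or CY served as media at 37 °C. OD595 was taken every 30 min for 14 h and corrected by subtracting the first reading. Fitness is the optical density at stationary-phase entry divided by the robust mean of no-drug controls, capped at 1.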

B. subtilis 168 = system: B. subtilis 168
In short: as §1

S. aureus Newman = system: S. aureus Newman
In short: as §1

COc1cc(Cc2cnc(N)nc2N)cc(OC)c1OC [Trimethoprim] + Cn1nnc(-c2ccc(-c3ccc(N4C[C@H](CO)OC4=O)cc3F)cn2)n1 [Tedizolid]
S. aureus DSM 20231, first compound 0.125 µg/mL, one replicate
Conditions	fitness
partner 0.0625 µg/mL	0.846
partner 0.125 µg/mL	0.575
partner 0.25 µg/mL	0.289

fitness, S. aureus DSM 20231
Conditions	first compound 0.25 µg/mL	first compound 0.5 µg/mL	first compound 1 µg/mL
partner 0.0625 µg/mL	0.623	–	0.0355
partner 0.125 µg/mL	0.689	0.519	0.0418
partner 0.25 µg/mL	0.502	0.39	0.192

CCC[C@@H]1C[C@@H](C(=O)N[C@@H]([C@H]2O[C@H](SC)[C@H](O)[C@@H](O)[C@H]2O)[C@H](C)Cl)N(C)C1 [Clindamycin] + CO/N=C(\C(=O)N[C@@H]1C(=O)N2C(C(=O)O)=C(COC(N)=O)CS[C@H]12)c1ccco1 [Cefuroxime]
one replicate
Conditions	fitness
B. subtilis 168, first compound 0.0039 µg/mL, partner 0.195 µg/mL	0.442
B. subtilis 168, first compound 0.0039 µg/mL, partner 0.39 µg/mL	0.397
B. subtilis 168, first compound 0.0039 µg/mL, partner 0.78 µg/mL	0.389
B. subtilis 168, first compound 0.0078 µg/mL, partner 0.195 µg/mL	0.438
B. subtilis 168, first compound 0.0078 µg/mL, partner 0.39 µg/mL	0.367
B. subtilis 168, first compound 0.0078 µg/mL, partner 0.78 µg/mL	0.392
B. subtilis 168, first compound 0.0156 µg/mL, partner 0.195 µg/mL	0.366
B. subtilis 168, first compound 0.0156 µg/mL, partner 0.39 µg/mL	0.326
B. subtilis 168, first compound 0.0156 µg/mL, partner 0.78 µg/mL	0.28
B. subtilis 168, first compound 0.0625 µg/mL, partner 1.562 µg/mL	0.135
B. subtilis 168, first compound 0.0625 µg/mL, partner 3.125 µg/mL	0.0691
B. subtilis 168, first compound 0.0625 µg/mL, partner 6.25 µg/mL	0.0572
B. subtilis 168, first compound 0.125 µg/mL, partner 1.562 µg/mL	0.0526
B. subtilis 168, first compound 0.125 µg/mL, partner 3.125 µg/mL	0.031
B. subtilis 168, first compound 0.125 µg/mL, partner 6.25 µg/mL	0.0267
B. subtilis 168, first compound 0.25 µg/mL, partner 1.562 µg/mL	0.0448
B. subtilis 168, first compound 0.25 µg/mL, partner 3.125 µg/mL	0.028
B. subtilis 168, first compound 0.25 µg/mL, partner 6.25 µg/mL	0.0276
S. aureus Newman, first compound 0.0312 µg/mL, partner 0.04875 µg/mL	0.764
S. aureus Newman, first compound 0.0312 µg/mL, partner 0.0975 µg/mL	0.681
S. aureus Newman, first compound 0.0312 µg/mL, partner 0.195 µg/mL	0.718
S. aureus Newman, first compound 0.0625 µg/mL, partner 0.04875 µg/mL	0.358
S. aureus Newman, first compound 0.0625 µg/mL, partner 0.0975 µg/mL	0.304
S. aureus Newman, first compound 0.0625 µg/mL, partner 0.195 µg/mL	0.21
S. aureus Newman, first compound 0.125 µg/mL, partner 0.04875 µg/mL	0.111
S. aureus Newman, first compound 0.125 µg/mL, partner 0.0975 µg/mL	0.0924
S. aureus Newman, first compound 0.125 µg/mL, partner 0.195 µg/mL	0.078

fitness, B. subtilis 168
Conditions	first compound 0.0625 µg/mL	first compound 0.125 µg/mL	first compound 0.25 µg/mL
partner 0.04875 µg/mL	0.396	0.401	0.218
partner 0.0975 µg/mL	0.306	0.241	0.195
partner 0.195 µg/mL	0.39	0.217	0.217

N[C@@H]1CONC1=O [Cycloserine D] + CCCCCCCCCC(=O)N[C@@H]1[C@H]([C@@H]([C@H](O[C@H]1OC2=C3C=C4C=C2OC5=C(C=C(C=C5)[C@H]([C@H]6C(=O)N[C@@H](C7=C(C(=CC(=C7)O)OC8[C@H]([C@H]([C@@H]([C@H](O8)CO)O)O)O)C9=C(C=CC(=C9)[C@H](C(=O)N6)NC(=O)[C@@H]4NC(=O)[C@@H]1C2=CC(=CC(=C2)OC2=C(C=CC(=C2)[C@H](C(=O)N[C@H](CC2=CC(=C(O3)C=C2)Cl)C(=O)N1)N)O)O)O)C(=O)O)O[C@H]1[C@@H]([C@H]([C@@H]([C@H](O1)CO)O)O)NC(=O)C)Cl)CO)O)O [Teicoplanin]
fitness, main component drawn
Conditions	first compound 0.375 µg/mL	first compound 0.75 µg/mL	first compound 1.5 µg/mL
S. aureus DSM 20231, partner 0.1562 µg/mL	≥ 1	≥ 1	0.989
S. aureus DSM 20231, partner 0.3125 µg/mL	≥ 1	≥ 1	≥ 1
S. aureus DSM 20231, partner 0.625 µg/mL	≥ 1	≥ 1	≥ 1
S. aureus Newman, partner 0.1562 µg/mL	≥ 1	≥ 1	0.975
S. aureus Newman, partner 0.3125 µg/mL	≥ 1	≥ 1	≥ 1
S. aureus Newman, partner 0.625 µg/mL	0.865	0.779	0.77

fitness, S. aureus Newman, one replicate, main component drawn
Conditions	first compound 0.375 µg/mL	first compound 0.75 µg/mL	first compound 1.5 µg/mL
partner 0.62 µg/mL	0.831	0.783	0.894
partner 1.24 µg/mL	0.745	0.694	0.743
partner 2.48 µg/mL	0.368	0.341	0.377
